Measured values as given in US20040097521A1, “Clinical treatment” (priority 2000, published 2004).

Assays:
[1] = system: human colon carcinoma cells (CaCo2); test: Effects of NAC and di-NAC on human colon carcinoma cells (CaCo2) in culture; format: cell-based; settings: for local concentration for maximum inhibition of proliferation (no growth) / time to differentiate when treated: CaCo2; for toxic side effects: CaCo2, summary
Experimental: An established cell line of human colon carcinoma cells was used (CaCo2). CaCo2 is a proliferating human colon carcinoma cell line displaying irregular morphology, forming multiple cell layers with scarce microvillous structures and large intercellular spaces.
The CaCo2 cells were treated with various millimolar concentrations of NAC, ranging from 2 to 10 mM. NAC was added to the culture medium 24 hours after inoculation of the cells. After 3 days of culture in the presence of NAC the cells were analyzed for the following marker parameters: […]

[2] = system: primary normal human epidermal keratinocytes (NHEK); test: Effects of NAC or di-NAC on primary normal human epidermal keratinocytes (NHEK) in culture; format: cell-based; settings: for cell-cell junctions / concentration of E-cadherins / tubulin expression: 2 mM; for cell-cell junctions / concentration of E-cadherins / tubulin expression / concentration for complete suppression of cell proliferation: 3 days; for concentration for complete suppression of cell proliferation: 1 to 10 mM; for toxic side effects: summary
Excerpt: Primary normal human epidermal keratinocytes (NHEK) obtained from Clonetics Inc. (San Diego, Calif., U.S.A.) were cultivated in the medium provided by the supplier. These cells have a limited life-span of about 15 days in culture and undergo a normal differentiation process of epidermal keratinocytes with a final enucleation and exfoliation. After inoculation the cells acquire a polygonal morphology cell-cell adhesions. The cytoskeleton morphology is quite organized, mainly at the cell borders.
NHEK cells were treated with various millimolar concentrations of NAC or di-NAC, ranging from 1 to 10 mM. The substances were added to the culture medium 24 hours after inoculation. After 3 days of culture in the presence of 2 mM of NAC or di-NAC the cells were analysed for the following marker parameters: […]

[3] = system: localized psoriatic plaques; test: Local treatment of psoriatic plaques in volunteers with NAC or di-NAC cream; format: in vivo, human; settings: base-cream 10-20 weight %; for outcome of prolonged treatment: weeks to a few months; for most commonly reported side effect: with occlusive bandage
Excerpt: Five informed volunteers displaying localized psoriatic plaques were locally treated with a base-cream containing 10-20 weight % of NAC or di-NAC. The cream had been applied every night for variable periods—from weeks to a few months—with or without occlusive bandage. The skin of the patient was normally washed between each daily treatment. No other drugs were contemporarily used.

[4] = system: 1,2-dimethylhydrazine (DMH)-induced large intestinal tumors; test: DMH-induced large intestinal tumors in rats; format: in vivo, male Sprague-Dawley rats
Excerpt: The effects of daily NAC treatment or intermittent NAC treatments on intestinal tumors, which had been induced by treating male Sprague-Dawley rats with 1,2-dimethylhydrazine (DMH), were investigated.

[5] = system: DHD/K12-PROb colon adenocarcinoma; test: Colon adenocarcinoma (DHD/K12-PROb cells s.c.) in BD-IX rats; format: in vivo; settings: weekly injection
Experimental: In this experimental model BD-IX rats were divided into four groups: Groups G1 and G2, designated “cancer groups”, were used to study the effects of NAC on the progression of colon cancer, and Groups G3 and G4, designated “toxicity groups”, were used to study the effects of the treatment on metabolic processes and the parenchyma. DHD/K12-PROb cells were injected subcutaneously into the chest of Group G1 and G2 animals. From 1 to 13 weeks after inoculation the animals in Groups G2 and G4 received a weekly injection of NAC. The animals in Groups G1 and G3 received no treatment.

protein kinase C (PKC) = test: AOM-induced rat colon cancer model, PKC activity; format: in vivo; settings: colonic mucosa and tumors, P<0.01
Experimental: (§1) Since the efficacy of NAC against colon cancer is significant, the mechanisms of inhibiting colon carcinogenesis were explored by investigating the activities of protein kinase C (PKC), tyrosine protein kinase (TPK), and diacylglycerol kinase (DGK) as well as the 8-isoprostane levels in colonic mucosa and tumor tissues in an azoxy-methane (AOM)-induced rat colon cancer model.
(§2) At seven weeks of age corresponding groups of rats were injected s.c. with azoxymethane (AOM; 15 mg/kg body weight, once weekly for 2 weeks), and different experiments were continued until 38 weeks after the second AOM treatment. Then, the rats were then sacrificed and colonic mucosal as well as tumor samples were evaluated for PKC, TPK, DGK, and 8-isoprostane levels.

[6] = system: tyrosine protein kinase (TPK); test: AOM-induced rat colon cancer model, TPK activity; format: in vivo; settings: colonic mucosal and tumor, P<0.01
Experimental: as §1, §2

[7] = system: diacylglycerol kinase (DGK); test: AOM-induced rat colon cancer model, DGK activity; format: in vivo; settings: P<0.01
Experimental: as §1, §2

8-isoprostane = test: AOM-induced rat colon cancer model, 8-isoprostane levels; format: in vivo; settings: colonic tumors, versus control
Experimental: as §1, §2

[8] = system: 4NQO-induced rat malignant oral keratinocytes; test: 4NQO-induced rat malignant oral keratinocytes transplanted orthotopically to athymic mice; format: in vivo; settings: for potential to metastasise: differentiated rat malignant oral keratinocytes, versus untreated
Excerpt: The effects of NAC or di-NAC on the metastatic capacity of clonal populations of 4NQO-induced rat malignant oral keratinocytes were examined after orthotopic transplantation to athymic mice. Polygonal cells and spindle cells formed well-differentiated squamous cell carcinomas (keratin positive and vimentin negative) and undifferentiated spindle cell tumors (keratin negative and vimentin positive), respectively, in all animals at the site of inoculation (floor of mouth).

[9] = cited from earlier work
myeloma type tumor cells = settings: in vitro; cited from earlier work
[10] = system: human colon carcinoma cells (CaCo2); test: Effects of NAC and di-NAC on human colon carcinoma cells (CaCo2) in culture; format: cell-based; settings: CaCo2, di-NAC treatment
arteriosclerosis = settings: WHHL rabbits; cited from earlier work

SMILES: CC(=O)N[C@@H](CS)C(=O)O [NAC, N-acetyl-L-cysteine]
- local concentration for maximum inhibition of proliferation (no growth) [1]: about 1 mM
- time to differentiate when treated [1]: 3 days
- apoptosis / necrosis ([1]; CaCo2, 2 to 10 mM, 3 days): Neither apoptosis nor necrosis was observed
- concentration of maximum effect on decrease of cell proliferation ([1]; CaCo2, 2 to 10 mM, 3 days of culture): 2 mM
- cell-cell adhesion structures ([1]; CaCo2, 3 days of culture): increased number
- tubulin expression ([1]; CaCo2, 3 days of culture): strongly reduced
- cell viability ([1]; CaCo2, all doses added (2 to 10 mM), 3 days): unaffected
- toxic side effects [1]: without any detectable toxic side effects
- concentration at which reversion of colon cancer cells is induced [1]: 1 mM
- concentration at which colon carcinoma completely differentiate [1]: 5 mM
- local concentration for maximum inhibition of proliferation (no growth) ([2]; NHEK): about 1 mM
- time to differentiate when treated ([2]; NHEK): 3 days
- cell-cell junctions ([2]; NHEK): increased number
- concentration of E-cadherins ([2]; NHEK): increased
- tubulin expression ([2]; NHEK): reduced
- concentration for complete suppression of cell proliferation ([2]; NHEK): 2 mM
- cell viability ([2]; NHEK, all doses, up to 10 mM): unaffected
- toxic side effects ([2]; NHEK): no toxic side effects
- apoptosis / necrosis ([2]; NHEK, up to 10 mM): Neither apoptosis nor necrosis was observed
- concentration at which keratinocytes completely differentiate [2]: 1 mM
- minimum dose required to accelerate differentiation of normal keratinocytes [2]: 0.5 mM
- outcome of prolonged treatment [3]: complete remission of all symptoms
- most commonly reported side effect [3]: local hitching
- large intestinal tumor mass index ([4]; NAC-treated group, p<0.001 vs control): 0.04
- adenocarcinomas in the colons ([4]; daily NAC treatment): no adenocarcinomas were present
- large intestinal tumor burden ([4]; intermittent NAC treatment, p=0.001 vs control): 1 tumors/treatment group
- tumor growth ([5]; female and male rats): significantly slower
- life span ([5]; 1 to 13 weeks after inoculation): extended life span
- Ca2+ dependent and independent PKC activities (protein kinase C (PKC)): significantly inhibited
- TPK activities [6]: significantly suppressed
- DGK activity [7]: significant increased
- 8-isoprostane levels (8-isoprostane): lower levels
- potential to metastasise [8]: decreased potential to metastasise
- inhibition of clones of polygonal cells ([8]; exogenous NAC): markedly inhibited
- inhibition of spindle cells ([8]; exogenous NAC): inhibited
- side effects when used clinically ([9]; even after high doses, such as 10 g/day): no significant side effects
- clearance ([9]; in vivo): relatively rapid
- side effects after intravenous injection ([9]; paracetamol poisoning, 10 grams i.v. in 15 minutes, then half of the dose in 30 min): without any reported side effects
- activity against myeloma type tumor cells (myeloma type tumor cells): tumor proliferation inhibitory activity

SMILES: CC(=O)N[C@@H](CSSC[C@H](NC(C)=O)C(=O)O)C(=O)O [di-NAC, N,N′-diacetyl-L-cystine]
- local concentration for maximum inhibition of proliferation (no growth) [1]: about 1 mM
- time to differentiate when treated [1]: 3 days
- toxic side effects [1]: without any detectable toxic side effects
- concentration at which reversion of colon cancer cells is induced [1]: 1 mM
- concentration at which colon carcinoma completely differentiate [1]: 5 mM
- local concentration for maximum inhibition of proliferation (no growth) ([2]; NHEK): about 1 mM
- time to differentiate when treated ([2]; NHEK): 3 days
- cell-cell junctions ([2]; NHEK): increased number
- concentration of E-cadherins ([2]; NHEK): increased
- tubulin expression ([2]; NHEK): reduced
- concentration for complete suppression of cell proliferation ([2]; NHEK): 2 mM
- toxic side effects ([2]; NHEK): no toxic side effects
- concentration at which keratinocytes completely differentiate [2]: 1 mM
- minimum dose required to accelerate differentiation of normal keratinocytes [2]: 0.5 mM
- outcome of prolonged treatment [3]: complete remission of all symptoms
- most commonly reported side effect [3]: local hitching
- potential to metastasise [8]: decreased potential to metastasise
- E-cadherin expression [10]: increased
- proliferation [10]: decreased proliferation
- effect on arteriosclerosis (arteriosclerosis): inhibits arteriosclerosis
